# Experiments:
# atuA = atuA promoter-luxCDABE biosensor gene expression; assay type: cell-based; settings: Pseudomonas OST1909
# Method: Routine microbiology and gene expression assays using 96 well plates were performed to grow the biosensor strains in the presence of environmental water samples, and the light output from the biosensor was used as a proxy to indicate the concentration of naphthenic acids in the water.
# In the fourth step, all plasmid-encoded genetic circuits were introduced back into Pseudomonas OST1909 for validation.
# “SIGMA” and “Acros” indicate two sources of primarily acyclic NA mixtures. […] A post hoc Tukey HSD test was conducted with each compound and mixture to test significant relationships between each group (α=0.05, n=3).
# atu operon = settings: stated as known; cited from earlier work
SMILES,induction of the atu operon / atu genes (atuA),induction of atu genes in Pseudomonas aeruginosa by acyclic terpenes (atu operon)
CC(C)=CCCC(C)CCO (centres unmarked) [citronellol],do not induce,induced
CC(C)=CCC/C(C)=C/CO [geraniol],do not induce,induced
CC(C)=CCCC(C)CC(=O)O (centres unmarked) [citronellic acid],induce expression,

# Reference: US20240376514A1, “BACTERIAL BIOSENSORS FOR MONITORING AND DETECTION OF NAPHTHENIC ACIDS IN THE ENVIRONMENT” (THE GOVERNORS OF ATHABASCA UNIVERSITY, priority 2021, published 2024)
